These results are taken from the METLIN SMRT retention time set (Domingo-Almenara et al. 2019).

The nature of the series: gradient 5% acetonitrile 3 min, to 50% in 2 min, to 85% in 15 min, held 3 min, 100 µL/min. The conditions noted are these: column: Zorbax Extend-C18 2.1 x 50 mm; eluents: water / acetonitrile, 0.1% formic acid. In short, it runs like this:
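Retention times of pure standards were taken from adduct peaks that were selected by computer and manually inspected. Over 3 months, mixtures of ~100 molecules were run by HPLC–quadrupole time-of-flight mass spectrometry in positive and negative ionization mode. The Zorbax Extend-C18 column (2.1 × 50 mm, 1.8 μm) ran at 100 μL/min in water and acetonitrile, each containing 0.1% formic acid, with 40 μL dead volume and 900 μL dwell volume.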
For the compound `CCCCNC(=O)c1cn(CCC)nc1S(=O)(=O)N1CCN(c2ccccc2OCC)CC1`, the RP-LC retention time was determined as 1140 s. The compound `Cc1ccc(NC(=O)NC2CCN(c3ccc(C)c(C)c3)C2=O)cc1` (centres undefined) registered an RP-LC retention time of 931 s. Compound `Cn1cnc(S(=O)(=O)NCCc2noc(-c3ccccc3)n2)c1` yielded an RP-LC retention time of 703 s. Regarding `CCn1nc(C)c(-c2cc(C(=O)NCC3Cn4cccc4C(=O)N3C)no2)c1C` (centres undefined), the RP-LC retention time amounted to 679 s.

Turning to `Cc1ccc(N2N=C(C(=O)NCC3CCCO3)S(=O)(=O)c3cc(F)ccc32)cc1` (centres undefined), the RP-LC retention time was determined as 877 s.

On to `CCc1nc(-c2ccc3c(c2)CCN3C(=O)COc2ccc(OC)cc2)no1`, for which the RP-LC retention time is 1000 s. Take `O=C(c1ccoc1)N1CCCC(c2cc(-c3ccccc3)n[nH]2)C1` (centres undefined): the RP-LC retention time is 594 s.

The compound `Nc1cc(C2CCN(C(=O)Nc3cccc(Cl)c3)CC2)no1` had an RP-LC retention time of 727 s. As for `Cc1ccc(CNC(=O)C2CCCN(c3nc4c(s3)c(C)nn4-c3ccc(C)cc3)C2)cc1` (centres undefined), the figure is 1210 s; as for `CCCNC(=O)C1CCCN(c2nc3ncn(CC(=O)Nc4ccc(C)cc4C)c(=O)c3s2)C1` (centres undefined), 703 s.

`CNC(=O)[C@H]1O[C@@H](n2cnc3c(NCc4cccc(I)c4)ncnc32)C(O)C1O` (some centres undefined): the RP-LC retention time was 721 s. As for `CCn1nccc1C(=O)N1C[C@@H]2C[C@H](NS(=O)(=O)c3ccccc3)[C@H]1C2`, the figure is 677 s; as for `CCCn1cnc2cc(CNC(=O)c3ccc(-n4c(C)ccc4C)cc3)ccc21`, 722 s. The value for `COc1ccc(F)cc1S(=O)(=O)N1C[C@@H]2C[C@H](NC(=O)c3ccccc3)[C@H]1C2` was 661 s; that for `Cc1ccc(C)c(-c2cc3c(=O)n(Cc4nc(-c5ccc6c(c5)OCO6)no4)ncn3n2)c1` was 683 s; that for `CN(C)c1cc(OC2CCN(C(=O)c3cnn4cccnc34)C2)ncn1` (centres undefined) was 578 s. The value for `CC(C)CNC(=O)CN1CCN(Cc2ccc(F)cc2)C1=O` was 742 s; that for `O=C(NCCCN1CCOCC1)c1cc(-c2ccccc2)nc2n[nH]c(-c3ccccc3)c12` was 610 s; that for `O=C(c1cccs1)N1CCC(c2nncn2Cc2ccccc2)CC1` was 673 s.

Compound `CC1CCCN(S(=O)(=O)c2ccc(C(=O)Nc3nc4c(s3)CCc3ccccc3-4)cc2)C1` (centres undefined) registered an RP-LC retention time of 1260 s.

Consider `CN(C)C(=O)C1CCN(c2nc3ccc(-c4ccsc4)nc3s2)CC1`, for which the RP-LC retention time is 839 s. The value for `COCc1nncn1C1CCN(S(=O)(=O)c2ccc(C)c(Cl)c2)CC1` was 770 s.

On to `CCN(C(=O)Nc1ccccc1C(F)(F)F)c1nc(-c2ccc(C)cc2)cs1`, for which the RP-LC retention time is 576 s. `COc1ccc(-c2cc(C(=O)N3CCN(c4c(C)n(C)c(=O)n(C)c4=O)CC3)c3ccccc3n2)cc1` had an RP-LC retention time of 806 s. The value for `O=C(Cn1nc(N2CCSCC2)c2ccccc2c1=O)Nc1ccccc1C(F)(F)F` was 979 s. Turning to `O=C(NCc1ccc2c(c1)OCO2)C1CC(=O)N(CCc2c[nH]c3ccc(F)cc23)C1` (centres undefined), the RP-LC retention time was 766 s. As for `CCOc1ccc2nc(Nc3ncc4c(n3)CC(c3cccs3)CC4=O)nc(C)c2c1` (centres undefined), the figure is 795 s. As for `c1ccc(-c2noc(C3CCN(Cc4ccco4)C3)n2)cc1` (centres undefined), the figure is 644 s; as for `CCOC(=O)c1ccc(Nc2c(C(=O)N3CCCCC3CC)cnc3nc(C)ccc23)cc1` (centres undefined), 701 s. As for `COc1cc(O)cc(O)c1C(=O)/C=C/c1ccccc1`, the RP-LC retention time was 903 s.

`CC(C)c1cc(C(=O)Nc2ccc(Cl)cc2)no1`: the RP-LC retention time came out at 1080 s. `CCOC1CCN(C(=O)NC2CCCC2)CC1` came in with an RP-LC retention time of 698 s. The value for `COCCCNC(=O)N1CCCC1c1nc(-c2cccc(Cl)c2)no1` (centres undefined) was 853 s; that for `CN(C)S(=O)(=O)c1ccc(-n2cnc(C(=O)N3CCN(Cc4ccccc4)CC3)c2)cc1` was 626 s. The value for `Cc1nn(-c2ccc(F)cc2)c(C)c1S(=O)(=O)N1CCC(C(=O)N2CCCCC2)CC1` was 914 s; that for `COc1cc(OC)c(NC(=O)C2CCN(C(=O)C3Sc4ccccc4NC3=O)CC2)cc1Cl` (centres undefined) was 810 s. In turn, `Cc1ccc(NC(=O)Cn2c(N3CCOCC3)nc(C)cc2=O)c(C)c1` came in with an RP-LC retention time of 658 s. `CCc1nc2cc3c(cc2n1CC(=O)Nc1ccc(Br)cc1)OCCO3`: the RP-LC retention time came out at 707 s. Consider `CSc1ccc(-c2nc3ccc(C)cn3c2NC2CCCCC2)cc1`, for which the RP-LC retention time was 878 s. The value for `CCOC(=O)Cc1ccc(NC(=O)NC2CCN(c3ccc(C)c(C)c3)C2=O)cc1` (centres undefined) was 877 s; that for `CC(C)Cn1cc(CCNC(=O)Nc2ccc(F)c(Cl)c2)c2cccnc21` was 912 s. As for `Cn1cc(-c2cnn3c(N)c(Br)c(C4CCCNC4)nc23)cn1` (centres undefined), the figure is 613 s. `Cc1csc2nc(-c3cccc(NC(=O)c4ccccc4[N+](=O)[O-])c3)cn12`: the RP-LC retention time came out at 667 s. The value for `O=C(Cc1ccc(NC(=O)CSCc2ccccc2)cc1)NCC(F)(F)F` was 801 s; that for `CC(=O)NCc1nc(-c2cccc(-c3csc(C)n3)c2)no1` was 704 s. `Cc1cc(C(=O)N2CCC[C@H]2c2nc(-c3ccccc3)n[nH]2)nn1C` returned an RP-LC retention time of 654 s. The value for `COCc1noc(C2CN(C(=O)c3ccc(Cl)s3)CC23CCCC3)n1` (centres undefined) was 962 s; that for `Clc1ccc(-c2csc(Nc3c(Cl)cccc3Cl)n2)cc1Cl` was 1410 s. Consider `CCCN1CCN(c2ncc(C(=O)Nc3ccccc3)c(N)n2)CC1`, for which the RP-LC retention time came out at 610 s. The compound `COc1ccc(-c2ncccc2CNS(=O)(=O)Cc2ccccc2F)cc1` returned an RP-LC retention time of 660 s.

Consider `COC(=O)c1ncn2c1C(=O)N(Cc1ccccc1F)C(C)(C(=O)NCc1ccc(C)cc1)C2` (centres undefined), for which the RP-LC retention time turned out to be 772 s. As for `O=C(Cc1csc(NC(=O)Nc2cccc(Cl)c2)n1)Nc1ccccc1`, the figure is 924 s; as for `CCC(C(=O)N1CCOCC1)n1c2ccccc2c2cnn(C)c(=O)c21` (centres undefined), 764 s; as for `CCN1CCCC1CNC(=O)CCc1nc(-c2ccc(N3CCCC3)cc2)no1` (centres undefined), 685 s. The compound `CC(C)NC(=O)N1CCCC1c1noc(COc2ccc(F)cc2)n1` (centres undefined) had an RP-LC retention time of 799 s.

`O=C(CN1C(=O)C2CCCCN2c2ccc(C(=O)N3CCCC3)cc21)Nc1ccc2c(c1)OCO2` (centres undefined) yielded an RP-LC retention time of 794 s. On to `O=C(C1CCN(c2nc3ccc(-c4ccsc4)nc3s2)CC1)N1CCOCC1`, for which the RP-LC retention time came to 826 s. As for `O=C(CS(=O)(=O)Cc1ccccc1)Nc1nc2cc3c(cc2s1)OCO3`, the figure is 790 s; as for `Cc1ccccc1OCCCC(=O)Nc1nc(-c2ccccc2)cs1`, 1180 s. With `Cn1ccc2c(cc(C(=O)NCc3cc(F)cc(F)c3)n2C)c1=O`, the RP-LC retention time was 701 s. The value for `Cc1cc(C)n(-c2ccnc(N3CCC(C(=O)NCc4ccccn4)CC3)n2)n1` was 610 s. As for `C=CCN1C(=O)COc2ccc(-c3nc(NC(=O)Cc4ccccc4)sc3C)cc21`, the figure is 1000 s; as for `COc1ccc(-c2noc(-c3ccc(NC(=O)c4cccs4)cc3)n2)cc1`, 1140 s. `CS(=O)(=O)Nc1ccc(C2(C(=O)N3CCN(c4ccccc4)CC3)CCCCC2)cc1`: the RP-LC retention time is 674 s.

Turning to `O=C(Nc1ccc(F)cc1F)c1ncccn1`, the RP-LC retention time worked out at 661 s.

As for `COC[C@@H]1CN(Cc2cccc(C#N)c2)C[C@H]1c1ccccn1`, the RP-LC retention time turned out to be 608 s. As for `CCCN(C(=O)Nc1ccccc1C(=O)OCC)c1nc(-c2ccc(C3CCCCC3)cc2)cs1`, the figure is 630 s; as for `Cc1onc(-c2ccccc2Cl)c1C(=O)N1CCC2(CC1)CC(=O)c1ccccc1O2`, 858 s. The value for `O=C(Nc1cccc(F)c1)C1CC(=O)N(c2ccc3c(c2)CCN3C(=O)C2CCC2)C1` (centres undefined) was 839 s; that for `COCCn1ncc(N2CCC(C(=O)N3CCc4ccccc43)C2)cc1=O` (centres undefined) was 713 s. In turn, `Cc1nc2cc(-c3noc(-c4ccc(Cl)cc4Cl)n3)ccc2o1` gave an RP-LC retention time of 1250 s. The value for `O=C(NC1CCCCC1)C1CCCN(c2ncc(-c3ccccc3)cn2)C1` (centres undefined) was 1070 s; that for `COc1cc2nc(C(=O)N3CCCCC3)cc(Nc3cccc(SC)c3)c2cc1OC` was 723 s. As for `Cn1c(=O)n(C)c2cc(N3CCOCC3)c(NC(=O)Cc3ccccc3)cc21`, the figure is 752 s; as for `Cc1cc(-c2nnc(C3CCC3)o2)c(C)n1CC(=O)NCc1ccc(F)cc1Cl`, 899 s; as for `Cc1nc(NC(=O)c2ccccc2)nc2cc3c(cc12)OCO3`, 688 s. As for `CCCN(CC1CCOC1)C(=O)Nc1cccc(C(F)(F)F)c1` (centres undefined), the figure is 922 s; as for `COC(=O)c1ncn2c1C(=O)N(c1ccc(C)cc1)C(C)(C(=O)NCc1ccc(C)cc1)C2` (centres undefined), 747 s. For the compound `Cc1cc(NC(=O)c2nc(C(C)C)oc2C)ccc1Cl`, the RP-LC retention time is 1250 s.
